From patent publication US20250177548A1, “FUSOGENIC PEPTIDE COMPOSITIONS AND METHODS OF CARGO DELIVERY” (CLEMSON UNIVERSITY, priority 2022, published 2025)
Values joined by “and” are separate entries in the source; they are usually repeats but may differ in a detail not shown here. Identical values can stand only once. Non-standard residues stand in square brackets, D forms with d. No end group written: not given here. pG = not defined here

Columns and labels:
[1] = system: CSNK2A1 mRNA; test: qPCR of CSNK2A1 mRNA in OVCAR3 cells; type: cell-based
Procedure: qRT-PCR. Cells were seeded at 50,000 cells per well and treated with siRNA targeting CSNK2A1 (siCSNK2A1 #s3638, Thermo Fisher Scientific) at increasing N:P ratios and incubated for a total of 48 hours in McCoys 5A/DMEM-10% FBS. Treated cells were washed with 1×PBS at 24 hours and fresh media was added. RNAisolation was completed using a Qiagen Mini-RNeasy Kit (Qiagen, Hilden, Germany) according to the manufacturer's protocol. RNA isolation quality and quantity were measured through the Gen5 protocol using a Take3 plate (BioTek). RNA was reverse-transcribed using the QuantiTect Reverse Transcription kit (Qiagen). Quantitative real-time PCR was completed with a QuantStudio 3 qPCR system (Applied Biosystems) using Applied Biosystems TaqMan FAST Master Mix (Thermo Fisher) and CSNK2A1 (ID #Hs00751002_s1) and 18S (ID #Hs99999901_s1) predesigned TaqMan probes, according to the manufacturer's protocol.
Gene and Protein Knockdown. Bioactivity of siRNAs was determined via qPCR and western blot analysis. OVCAR3 or CAOV3 cells were seeded at 50,000 cells per well as previously described and treated with siRNA targeting CSNK2A1 and siNT at N:P ratios 30:1, 40:1, 50:1, 60:1, and 70:1. LHRH-DIV3W peptide complexed with either siNT or siCSNK2A1 was incubated for a total of 48 hours in RPMI 1640/DMEM-10% FBS, with one media exchange occurring after the 24-hour timepoint. Treated cells were washed with 1×PBS at 24 hours and fresh media was added. RNA isolation was completed using a Qiagen Mini-RNeasy Kit (Qiagen, Hilden, Germany) according to the manufacturer's protocol. RNA isolation quality and quantity was measured through the Gen5 protocol using a Take3 plate (BioTek). RNA was reverse transcribed using the QuantiTect Reverse Transcription kit (Qiagen) according to the manufacturer's protocol. Quantitative real-time PCR was completed with a QuantStudio 3 qPCR system (Applied Biosystems, Waltham, MA) using Applied Biosystems TaqMan FAST Master Mix (Thermo Fisher) and CSNK2A1 (ID #Hs00751002_s1) and 18S (ID #Hs99999901_s1) predesigned TaqMan probes according to the manufacturer's protocol.

[2] = system: OVCAR3 cells
Procedure: Cells were seeded at 10,000 cells per well with complete culture media in a 96-well plate and incubated overnight to allow the cells to attach. DIV3 (X) peptides were complexed with siNT at 40:1 to 80:1 N:P molar ratios. DIV3 (X)-siNT complexes were incubated with OVCAR3 or CAOV3 cells at a final concentration of 100 nM siRNA and 10% FBS for 24 hours. Media was then aspirated, cells were washed with 1× phosphate-buffered saline (PBS), and fresh media with 10% FBS was added to each well and incubated another 24 hours.
Viability was measured using an MTS Assay performed with CellTiter 96 AQueous One Solution Cell Proliferation Assay (Promega, Madison, WI). Assay reagent was added according to the manufacturer's protocol, and cells were incubated for 4 hours. Absorbance was read using a BioTek Synergy LX (BioTek, Winooksi, VT) plate reader at 490 nm. An MTS cell viability assay was also conducted as described for OVCAR3 and CAOV3 cells treated with DIV3W-siRNA complexes.
OVCAR3 or CAOV3 cells were seeded at 10,000 cells per well with complete culture media in a transparent 96-well plate and incubated overnight to allow the cells to attach. LHRH and LHRH-DIV3W peptides were delivered to cells without siRNA cargo. After 24 hours of incubation the media was exchanged and after another 24-hour incubation at 37° C. in 5% CO2, viability was measured using an MTS Assay performed with the CellTiter 96 AQueous One Solution Assay (Promega, Madison, WI). Assay reagent was added according to the manufacturer's protocol and cells were incubated for 4 hours. Absorbance was read using a BioTek Synergy LX (BioTek, Winooksi, VT) plate reader at 490 nm.

[3] = system: CK2α protein; test: Western blot of CK2α in OVCAR3 cells; type: cell-based; conditions: OVCAR3, 48 hours, 50:1 N:P ratio
Procedure: Western Blot. […] Cells were washed and treated with DIV3 (X)-siRNA complexes as previously described. Following the 48-hour treatment, cells were washed with 1× PBS and lysed with cold radioimmunoprecipitation assay (RIPA) buffer supplemented with protease inhibitor cocktail (Thermo Fisher). Protein concentrations were determined via bicinchoninic assay according to the manufacturer's protocol and absorbance was read at 562 nm. Equivalent protein concentrations for each treatment condition were separated by SDS-PAGE on a BioRad Stain-Free 10% gel according to BioRad protocols and transferred to a Stain-Free PVDF membrane using a wet transfer system. The PVDF membrane was cut at appropriate molecular weight intervals consistent with protein weights, then analyzed and blocked for 1 hour with 5% non-fat dried milk solution in 1× Tris-HCl-buffered-saline-0.1% Tween 20 (TBST) at room temperature. Blots were probed at 4° C. overnight with rabbit monoclonal anti-CK2α antibody (1:1000, Invitrogen) or mouse monoclonal anti-β-actin (1:10,000, Sigma-Aldrich, St. Louis, MO). […] Five additional washes with 1× TBST were performed and protein bands were detected with SuperSignal West Pico Plus Chemiluminescent Substrate (Thermo Fisher) and imaged using a BioRad ChemiDoc Imaging System.

[4] = system: OVCAR3 cells; test: cellular uptake of labeled siRNA by flow cytometry; type: cell-based; set-up: uptake efficiency higher than DIV3W uptake: concentration or dose not given beside the values; conditions: for uptake efficiency, tandem vs LHRH peptide: FIG. 10E, 4 hr, cell line not stated
Procedure: Cellular Uptake. OVCAR3 and CAOV3 cells were prepared at 50,000 cells per well in a 24-well plate. […] Post-incubation, media was aspirated and cells were washed with 1× PBS. To counterstain the nuclei, SuperSignal NucBlue Hoechst stain (Thermo Fisher, Waltham, MA) was added to the cells for 30 minutes, followed by an additional 1×PBS wash. Subsequent imaging was performed using an EVOS FL Microscope (Thermo Fisher) at 10× magnification. For flow cytometric analysis, cells were detached, resuspended in 1× PBS, and analyzed using an Attune NXT Acoustic flow cytometer (Invitrogen, Carlsbad, CA) with the blue laser line and BL2 (574/26 nm) channel.
Cellular Uptake and Targeting Specificity. Observation of cell uptake was performed by seeding OVCAR3 and CAOV3 cells at a density of 50,000 cells per well in a 24-well plate. LHRH and LHRH-DIV3W peptides were complexed with […] as previously described and delivered to cells at 20:1 to 80:1 N:P ratios. Each cell line was incubated with tandem peptide complexes for both 4- and 24-hour treatment periods. Following incubation, cell media was removed, and cells were washed with 1× PBS prior to the addition of 500 μL of 1×PBS and SuperSignal NucBlue Hoescht 33342 nuclear stain (Thermo Fisher, Waltham, MA). Cellular imaging was completed using an EVOS FL Microscope (Thermo Fisher) at 10×, 20×, and 40× magnification. Flow cytometry was completed after cell imaging and cells were trypsinized, resuspended in 1×PBS, and analyzed with an Attune NXT Acoustic Flow Cytometer (Invitrogen) with the red laser line and RL2 […] channel.

pGHWSY-(d) LLRPGGGGGWEADIVADIVWDIVADIVAGGG-(d) RRRRRRRRR ([pG]HWSY[dL]LRPGGGGGWEADIVADIVWDIVADIVAGGG[dR][dR][dR][dR][dR][dR][dR][dR][dR]; reading uncertain) [LHRH-DIV3W]
CSNK2A1 mRNA expression, % of negative control ([1]; 50:1, vs LHRH-DIV3W-siNT): 59.75%±12.61%
CSNK2A1 mRNA expression, % of negative control ([1]; 60:1, vs LHRH-DIV3W-siNT): 72.17%±23.19%
CSNK2A1 mRNA expression, % of negative control ([1]; 70:1, vs LHRH-DIV3W-siNT): 51.88%±9.87%
cytotoxicity of peptide alone [2]: did not cause cytotoxic effects
viability [2]: 109.66%+0.8%
CK2α protein expression [3]: slight reduction in protein band intensity
uptake efficiency, tandem vs LHRH peptide ([4]; 40:1): 66.81%±4.3%
uptake efficiency, tandem vs LHRH peptide ([4]; 60:1): 72.59%±6.87%
uptake efficiency, tandem vs LHRH peptide ([4]; 80:1): 76.26%±14.9%
uptake efficiency higher than DIV3W uptake ([4]; OVCAR3): 12%
uptake efficiency ([4]; OVCAR3, siNT-Cy5.5, 4 hours, 80:1): 79.58%+0.61% and 79.58%±1.05%
uptake efficiency ([4]; OVCAR3, siNT-Cy5.5, 24 hours, 80:1): 76.26%±15.56%
